Results as given in patent publication EP0543245A1, “Renin inhibiting amino acid derivatives” (F. HOFFMANN-LA ROCHE AG, priority 1991, dated 1993).

target: T1, Human-Renin (Homo sapiens, UniProt P00797); assay: In vitro test with pure human renin; type: biochemical; settings: human tetradecapeptide renin substrate (hTD), pH 7.4, 3 h at 37°C vs 4°C, angiotensin I measured by RIA, read-out: IC₅₀-Werte
T1 sequence (P00797 67-406): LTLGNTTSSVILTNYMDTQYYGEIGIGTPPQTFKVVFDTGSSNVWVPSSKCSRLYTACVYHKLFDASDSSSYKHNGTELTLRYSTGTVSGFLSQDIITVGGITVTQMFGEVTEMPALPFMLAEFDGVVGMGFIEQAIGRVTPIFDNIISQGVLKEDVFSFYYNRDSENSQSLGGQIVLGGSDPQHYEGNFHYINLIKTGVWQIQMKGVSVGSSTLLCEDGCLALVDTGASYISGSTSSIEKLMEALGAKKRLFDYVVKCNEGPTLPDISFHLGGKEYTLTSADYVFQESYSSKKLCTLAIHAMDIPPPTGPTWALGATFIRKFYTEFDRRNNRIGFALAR
Procedure: In vitro-Test mit reinem Human-Renin
Der Test wird in Eppendorf Röhrchen durchgeführt. Die Inkubationsmischung besteht aus (1) 100 µl Human-Renin in Puffer A (0,1M Natriumphosphatlösung, pH 7.4, enthaltend 0,1% Rinderserumalbumin, 0,1% Natriumazid und 1 mM Aethylendiamintetraessigsäure), genügend für eine Renin-Aktivität von 2-3 ng Angiotensin I/ ml/Std.; (2) 145 µl Puffer A; (3) 30 µl von 10 µM humanem Tetradekapeptid-Reninsubstrat (hTD) in 10 mM Salzsäure; (4) 15 µl Dimethylsulfoxid mit bzw. ohne Hemmer und (5) 10 µl einer 0,03 molaren Lösung von Hydroxychinolinsulfat in Wasser.
Die Proben werden drei Stunden bei 37°C bzw. 4°C in Triplikaten inkubiert. 2 x 100 µl Proben pro Versuchsröhrchen werden dann verwendet, um die Produktion von Angiotensin I via RIA (standard radioimmunoassay; Clinical Assay solid phase kit) zu messen. Kreuzreaktivitäten der verwendeten Antikörper im RIA sind: Angiotensin I 100%; Angiotensin II 0,0013%; hTD (Angiotensin I-Val-Ile-His-Ser-OH) 0,09%. Die Produktion von Angiotensin I wird durch die Differenz zwischen dem Versuch bei 37°C und demjenigen bei 4°C bestimmt.
Folgende Kontrollen werden mitgeführt: • (a) Inkubation von hTD-Proben ohne Renin und ohne Hemmer bei 37°C und 4°C. Die Differenz zwischen diesen beiden Werten ergibt den Grundwert der Angiotensin I-Produktion. • (b) Inkubation von hTD-Proben mit Renin, jedoch ohne Hemmer bei 37°C und 4°C. Die Differenz zwischen diesen Werten ergibt den Maximalwert der Angiotensin I-Produktion.
In jeder Probe wird von der ermittelten Angiotenin I-Produktion der Grundwert der Angiotensin I-Produktion abgezogen. Die Differenz zwischen dem Maximalwert und dem Grundwert ergibt den Wert der maximalen Substrathydrolyse (=100%) durch Renin.
Die Resultate werden als IC₅₀-Werte angegeben, welche diejenige Konzentration des Hemmers bezeichnen, bei welcher die enzymatische Aktivität um 50% gehemmt wird. Die IC₅₀-Werte werden aus einer linearen Regressionskurve aus einem logit-log plot ermittelt.

| IC50 [nM] | Compound |
| --- | --- |
| 51 | O=C(N[C@@H](CC1CCCCC1)[C@@H](O)[C@@H](O)C1CC1)C(Cc1cccnc1)c1nnc2c(C3CC3)nc(-c3cccnc3)cn12 (single isomer, unassigned) [A] |
| 2 | O=C(N[C@@H](CC1CCCCC1)[C@@H](O)[C@@H](O)C1CC1)C(Cc1cscn1)c1nnc2c(C3CC3)nc(-c3cccnc3)cn12 (single isomer, unassigned) [B] |
| 17 | O=C(N[C@@H](CC1CCCCC1)[C@@H](O)[C@@H](O)C1CC1)C(Cc1cccnc1)c1nnc2c(CC3CC3)nc(-c3cccnc3)cn12 (single isomer, unassigned) [C] |
| 2.3 | O=C(N[C@@H](CC1CCCCC1)[C@@H](O)[C@@H](O)C1CC1)C(Cc1cscn1)c1nnc2c(CC3CC3)nc(-c3cccnc3)cn12 (single isomer, unassigned) [D] |
| 150 | CC(C)Cc1nc(-c2cccnc2)nn2c(C(Cc3cccnc3)C(=O)N[C@@H](CC3CCCCC3)[C@@H](O)[C@@H](O)C3CC3)nnc12 (single isomer, unassigned) [F] |
| 100 | O=C(N[C@@H](Cc1ccccc1)[C@@H](O)[C@@H](O)C1CC1)C(Cc1cccnc1)c1nnc2c(C3CC3)nc(-c3cccnc3)cn12 (stereo partly drawn) [E, (R,S)-N-[(1S,2R,3S)-1-Benzyl-3-cyclopropyl-2,3-dihydroxypropyl]-8-cyclopropyl-6-(3-pyridyl)-α-(3-pyridylmethyl)-s-triazolo[4,3-a]pyrazin-3-acetamid] |
| 16 | C=CCC(C(=O)N[C@@H](CC1CCCCC1)[C@@H](O)[C@@H](O)C1CC1)c1nnc2c(CCC)nc(-c3cccnc3)cn12 (stereo partly drawn) [G, (R,S)-α-Allyl-N-[(1S,2R,3S)-1-(cyclohexylmethyl)3-cyclopropyl-2,3-dihydroxypropyl]-8-propyl-6-(3-pyridyl)-s-triazolo[4,3-a]pyrazin-3-acetamid] |
